Results taken from patent publication US20140135327A1, “N- (2 -AMINOPHENYL) BENZAMIDE DERIVATIVES AS HISTONE DEACETYLASE INHIBITORS” (CANCER RESEARCH TECHNOLOGY LIMITED, priority 2011, published 2014).

Key:
Type in all cases: biochemical
HDAC 2 = molecular target: T1, HDAC 2 (Homo sapiens, UniProt Q92769); assay: Fluorescence-based HDAC isoform assay with electrophoretic separation, HDAC 2; settings: isolated 6×His-tagged isoform, 1 μM FAM-labeled acetylated peptide, 17 h at 25° C.
T1 construct: HDACs 1, 2, 3, 6, and 8 were expressed as full length fusion proteins; 6xHis; made in house; host or cells: Sf9 cells (baculovirus)
Description: (§1) The inhibitory effects of the compounds of Examples 7 and 9 above on HDAC activity were determined using a fluorescence-based assay with electrophoretic separation of substrate and product carried out using a microfluidic system followed by quantitation of fluorescence intensity in the substrate and product peaks.
(§2) The assays were performed using isolated HDAC isoforms that had been expressed as 6×His-tagged fusion proteins in a baculovirus expression system in Sf9 cells. HDACs 1, 2, 3, 6, and 8 were expressed as full length fusion proteins. For HDAC-4 and 7 only catalytic domains were expressed (HDAC-4 CAT and HDAC-7 CAT). The HDAC10 fusion protein was expressed as a carboxy-terminal deletion of 38 amino acids (residues 632-669). HDAC3 was coexpressed with a fragment of the SMRT gene (residues 395-489) to generate enzymatically active protein. Purified proteins were incubated with 1 μM carboxyfluorescein (FAM)-labeled acetylated peptide substrate and test compound for 17 h at 25° C. in HDAC assay buffer containing 100 mM HEPES (pH 7.5), 25 mM KCl, 0.1% BSA, and 0.01% Triton X-100. […] Substrate and product were separated electrophoretically using a Caliper LabChip 3000 system with blue laser excitation and green fluorescence detection (CCD2). The fluorescence intensity in the substrate and product peaks was determined using the Well Analyzer software on the Caliper system. […]

HDAC 3 = HDAC 3 (Homo sapiens, UniProt O15379); assay: Fluorescence-based HDAC isoform assay with electrophoretic separation, HDAC 3 (coexpressed with SMRT fragment); settings: HDAC3 coexpressed with SMRT fragment (residues 395-489), 1 μM FAM-labeled acetylated peptide, 17 h at 25° C.
Description: as §1, §2

HDAC 8 = molecular target: T2, HDAC 8 (Homo sapiens, UniProt Q9BY41); assay: Fluorescence-based HDAC isoform assay with electrophoretic separation, HDAC 8; settings: isolated 6×His-tagged isoform, 1 μM FAM-labeled acetylated peptide, 17 h at 25° C.
T2 construct: HDACs 1, 2, 3, 6, and 8 were expressed as full length fusion proteins; 6xHis; made in house; host or cells: Sf9 cells (baculovirus)
T2 sequence (Q9BY41 1-377): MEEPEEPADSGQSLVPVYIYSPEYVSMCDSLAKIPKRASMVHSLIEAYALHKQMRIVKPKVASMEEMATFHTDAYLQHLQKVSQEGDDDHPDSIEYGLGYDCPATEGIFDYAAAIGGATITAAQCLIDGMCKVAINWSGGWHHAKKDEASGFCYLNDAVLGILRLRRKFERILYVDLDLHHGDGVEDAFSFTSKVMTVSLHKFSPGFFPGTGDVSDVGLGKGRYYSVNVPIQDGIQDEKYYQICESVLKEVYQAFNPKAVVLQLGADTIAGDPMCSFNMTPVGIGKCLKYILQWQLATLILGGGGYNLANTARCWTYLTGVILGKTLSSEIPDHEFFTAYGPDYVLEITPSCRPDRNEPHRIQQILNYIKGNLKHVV
Description: as §1, §2

HDAC 4-CAT = molecular target: T3, HDAC 4-CAT (Homo sapiens, UniProt P56524); assay: Fluorescence-based HDAC isoform assay with electrophoretic separation, HDAC 4-CAT; settings: catalytic domain only, 1 μM FAM-labeled acetylated peptide, 17 h at 25° C.
T3 construct: For HDAC-4 and 7 only catalytic domains were expressed (HDAC-4 CAT and HDAC-7 CAT); 6xHis; made in house; host or cells: Sf9 cells (baculovirus)
Description: as §1, §2

HDAC 7-CAT = molecular target: T4, HDAC 7-CAT (Homo sapiens, UniProt Q8WUI4); assay: Fluorescence-based HDAC isoform assay with electrophoretic separation, HDAC 7-CAT; settings: catalytic domain only, 1 μM FAM-labeled acetylated peptide, 17 h at 25° C.
T4 construct: For HDAC-4 and 7 only catalytic domains were expressed (HDAC-4 CAT and HDAC-7 CAT); 6xHis; made in house; host or cells: Sf9 cells (baculovirus)
T4 sequence (Q8WUI4 512-865 limits assumed): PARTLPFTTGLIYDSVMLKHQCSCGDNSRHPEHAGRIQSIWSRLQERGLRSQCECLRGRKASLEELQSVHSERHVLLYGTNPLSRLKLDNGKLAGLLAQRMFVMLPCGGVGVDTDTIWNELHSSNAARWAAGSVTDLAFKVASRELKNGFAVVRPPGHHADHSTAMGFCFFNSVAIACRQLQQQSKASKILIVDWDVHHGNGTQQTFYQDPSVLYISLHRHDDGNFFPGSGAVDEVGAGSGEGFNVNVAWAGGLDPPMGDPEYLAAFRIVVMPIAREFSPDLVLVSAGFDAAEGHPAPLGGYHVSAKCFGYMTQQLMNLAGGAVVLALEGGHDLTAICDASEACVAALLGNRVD
Description: as §1, §2

HDAC 10 = molecular target: T5, HDAC 10 (Homo sapiens, UniProt Q969S8); assay: Fluorescence-based HDAC isoform assay with electrophoretic separation, HDAC 10; settings: carboxy-terminal deletion of 38 amino acids, 1 μM FAM-labeled acetylated peptide, 17 h at 25° C.
T5 construct: 6xHis; made in house; host or cells: Sf9 cells (baculovirus)
T5 sequence (Q969S8 1-631): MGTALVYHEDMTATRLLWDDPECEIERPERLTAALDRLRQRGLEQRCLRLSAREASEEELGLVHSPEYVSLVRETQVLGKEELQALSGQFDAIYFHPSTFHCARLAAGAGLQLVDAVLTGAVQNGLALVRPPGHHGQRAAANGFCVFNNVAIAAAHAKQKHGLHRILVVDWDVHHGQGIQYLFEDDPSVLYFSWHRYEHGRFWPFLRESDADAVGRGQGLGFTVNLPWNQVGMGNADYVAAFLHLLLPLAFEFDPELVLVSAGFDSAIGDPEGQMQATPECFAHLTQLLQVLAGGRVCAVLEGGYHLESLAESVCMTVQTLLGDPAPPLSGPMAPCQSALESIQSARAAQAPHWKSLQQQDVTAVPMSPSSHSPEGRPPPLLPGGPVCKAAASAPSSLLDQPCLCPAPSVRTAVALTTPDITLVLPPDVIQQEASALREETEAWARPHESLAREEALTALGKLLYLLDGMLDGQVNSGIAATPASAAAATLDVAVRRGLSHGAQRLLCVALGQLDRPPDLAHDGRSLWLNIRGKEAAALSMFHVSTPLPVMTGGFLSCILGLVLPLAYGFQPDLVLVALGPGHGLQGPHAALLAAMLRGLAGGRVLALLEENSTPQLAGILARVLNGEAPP
Description: as §1, §2

T1 sequence (Q92769 whole entry, species assumed, the tested form may be a part, canonical isoform): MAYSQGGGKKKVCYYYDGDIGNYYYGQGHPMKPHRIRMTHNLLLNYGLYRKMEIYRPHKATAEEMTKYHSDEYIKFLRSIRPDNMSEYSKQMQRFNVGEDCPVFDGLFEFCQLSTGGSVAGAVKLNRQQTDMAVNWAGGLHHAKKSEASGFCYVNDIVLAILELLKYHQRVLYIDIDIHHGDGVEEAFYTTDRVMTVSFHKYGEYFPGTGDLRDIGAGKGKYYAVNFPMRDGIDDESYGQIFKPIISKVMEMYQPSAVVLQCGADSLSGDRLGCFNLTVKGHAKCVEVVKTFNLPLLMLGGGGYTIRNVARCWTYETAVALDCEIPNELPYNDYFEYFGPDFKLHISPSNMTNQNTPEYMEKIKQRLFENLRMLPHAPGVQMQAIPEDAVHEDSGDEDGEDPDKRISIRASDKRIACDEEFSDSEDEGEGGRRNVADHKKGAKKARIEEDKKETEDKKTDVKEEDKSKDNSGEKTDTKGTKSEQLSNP
HDAC 3, sequence (O15379 whole entry, species assumed, the tested form may be a part, canonical isoform): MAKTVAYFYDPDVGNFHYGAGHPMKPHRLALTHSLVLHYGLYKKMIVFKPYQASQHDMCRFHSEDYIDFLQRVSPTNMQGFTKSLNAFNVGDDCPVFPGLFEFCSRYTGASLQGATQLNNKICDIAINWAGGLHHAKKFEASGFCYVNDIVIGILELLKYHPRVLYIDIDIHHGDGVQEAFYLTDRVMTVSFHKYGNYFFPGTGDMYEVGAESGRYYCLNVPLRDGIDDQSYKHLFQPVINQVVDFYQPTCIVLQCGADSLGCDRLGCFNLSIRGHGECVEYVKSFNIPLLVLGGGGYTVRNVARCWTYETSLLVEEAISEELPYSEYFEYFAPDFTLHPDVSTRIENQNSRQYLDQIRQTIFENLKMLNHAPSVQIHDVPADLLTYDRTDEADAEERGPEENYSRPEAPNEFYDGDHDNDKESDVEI
HDAC 3, sequence (Q9Y618 395-489 partner limits assumed, species assumed): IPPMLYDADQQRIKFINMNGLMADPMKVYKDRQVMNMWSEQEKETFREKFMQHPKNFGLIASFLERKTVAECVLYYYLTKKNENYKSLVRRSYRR
T3 sequence (P56524 655-1084 limits assumed): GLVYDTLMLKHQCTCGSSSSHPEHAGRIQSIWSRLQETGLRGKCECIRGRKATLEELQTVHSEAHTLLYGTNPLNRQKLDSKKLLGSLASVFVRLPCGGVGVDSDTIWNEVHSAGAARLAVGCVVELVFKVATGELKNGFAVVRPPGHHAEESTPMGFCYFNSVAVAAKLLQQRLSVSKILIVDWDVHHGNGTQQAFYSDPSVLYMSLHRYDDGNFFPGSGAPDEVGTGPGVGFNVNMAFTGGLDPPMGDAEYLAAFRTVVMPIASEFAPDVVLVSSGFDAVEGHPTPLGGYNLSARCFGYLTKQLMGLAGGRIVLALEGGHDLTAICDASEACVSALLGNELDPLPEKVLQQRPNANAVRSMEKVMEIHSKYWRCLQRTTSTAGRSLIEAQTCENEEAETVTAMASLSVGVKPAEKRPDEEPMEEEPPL

In the case of C=C1CN(Cc2ccc(C(=O)Nc3ccccc3N)cc2)C(=O)c2ccccc21 [Example 7, N-(2-Aminophenyl)-4-[(4-methylene-1-oxo-3,4-dihydroisoquino-2(1H)-yl)methyl]benzamide], the IC50 (HDAC 2) is reported as 54.4 nM, the IC50 (HDAC 3) is reported as 28.7 nM and the IC50 (HDAC 8) is reported as > 30 µM. It also gave an IC50 (HDAC 4-CAT) of 9.22 µM, an IC50 (HDAC 7-CAT) of 7.53 µM and an IC50 (HDAC 10) of 8.04 µM.
With C=C1CN(Cc2ccc(C(=O)Nc3ccccc3N)cc2)C(CC(=O)O)c2ccccc21 (stereo not drawn) [Example 9, [2-(4-{[(2-Aminophenyl)amino]carbonyl}benzyl)-4-methylene-1,2,3,4-tetra hydroisoquinolin-1-yl]acetic acid] the IC50 (HDAC 2) was 2110 nM, the IC50 (HDAC 3) was 797 nM and the IC50 (HDAC 8) was > 30 µM. For the same molecule, the IC50 (HDAC 4-CAT) was > 30 µM, the IC50 (HDAC 7-CAT) was > 30 µM and the IC50 (HDAC 10) was > 30 µM.
